# Experimental data from patent US20050101595A1, “N-containing cycloalkyl-substituted amino-thiazole derivatives and pharmaceutical compositions for inhibiting cell proliferation and methods for their use” (PFIZER INC., priority 2003, published 2005).
# Legend:
# CDK2/Cyclin A = CDK2/Cyclin A (Homo sapiens, UniProt P24941); assay: Inhibition of CDK2/Cyclin A Retinoblastoma Kinase Activity; format: biochemical; details: for inhibition at 0.05 µM: read-out: % inhibition of CDK2 (@ 0.05 μM), compound at 0.05 μM; for Ki: apparent Ki, CDK2/proteolyzed cyclin A, Rb fragment substrate, 25 μM ATP
# Protocol: Cyclin-dependent kinase activity was measured by quantifying the enzyme-catalyzed, time-dependent incorporation of radioactive phosphate from [^32P]ATP or [^33P]ATP into a protein substrate. Unless noted otherwise, assays were performed in 96-well plates in a total volume of 50 μL, in the presence of 10 mM HEPES (N-[2-hydroxyethyl]piperazine-N′-[2-ethanesulfonic acid]) (pH 7.4), 10 mM MgCl2, 25 μM adenosine triphosphate (ATP), 1 mg/mL ovalbumin, 5 μg/mL leupeptin, 1 mM dithiothreitol, 10 mM β-glycerophosphate, 0.1 mM sodium vanadate, 1 mM sodium fluoride, 2.5 mM ethylene glycol-bis(β-aminoethyl ether)-N,N,N′N′-tetraacetic acid (EGTA), 2% (v/v) dimethylsulfoxide, and 0.03-0.4 μCi [^32/33P]ATP per reaction. Reactions were initiated with enzyme, incubated at 30° C., and terminated after 20 minutes by the addition of ethylenediaminetetraacetic acid (EDTA) to 250 mM. The phosphorylated substrate was then captured on a nitrocellulose or phosphocellulose membrane using a 96-well filtration manifold, and unincorporated radioactivity was removed by repeated washing with 0.85% phosphoric acid. Radioactivity was quantified by exposing the dried membranes to a phosphorimager.
# Inhibition was measured relative to control wells that contained all reaction components including 2% (v/v) DMSO but no compound, after subtraction of background radioactivity measured in the absence of enzyme. Apparent Ki values of discrete compounds were measured by assaying enzyme activity in the presence of different inhibitor compound concentrations and subtracting the background radioactivity measured in the absence of enzyme. The kinetic parameters (kcat, Km for ATP) were measured for each enzyme under the usual assay conditions by determining the dependence of initial rates on ATP concentration. Inhibition data were fit to an equation for competitive inhibition using Kaleidagraph (Synergy Software), or were fit to an equation for competitive tight-binding inhibition using the software KineTic (BioKin, Ltd.).
# Inhibition of CDK2/Cyclin A Retinoblastoma Kinase Activity:
# CDK2 was purified using published methodology (Rosenblatt et al., “Purification and Crystallization of Human Cyclin-dependent Kinase 2,” J. Mol. Biol., vol. 230, 1993, pp. 1317-1319) from insect cells that had been infected with a baculovirus expression vector. […] A complex of CDK2 and proteolyzed cyclin A was prepared and purified by gel filtration. The substrate for this assay was the same Rb substrate fragment used for the CDK4 assays, and the methodology of the CDK2/delta cyclin A and the CDK4/delta cyclin D3 assays was essentially the same, except that CDK2 was present at 10 nM or 19 nM. The duration of the assay was 60 or 75 minutes, during which the time-dependence of product formation was linear and initial rate conditions were met. And, the percent inhibitions of the compounds of Example O through Example R were calculated as described above and shown in Table 2.
# HCT-116 cell line = assay: Inhibition of cell growth, tetrazolium salt (MTT) assay; format: cell-based; details: Homo sapiens, MTT; for inhibition at 0.175 µM: HCT-116, HCT-116 cells, compound at 0.175 uM; for IC50: HCT-116, 120 h, first HCT-116 column (c4), three to five days, read-out: HCT-116 IC50
# Procedure, shortened: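 Cells in McCoy's 5A medium were left 4 h, then given graded compound concentrations in 0.5% (v/v) DMSO and incubated three to five days at 37° C (5% CO2). MTT was added to 0.2 mg/mL for 4 h more; DMSO-solubilized formazan was read at 540 nm against 0.5% DMSO-only controls.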
SMILES,inhibition at 0.05 µM (CDK2/Cyclin A),inhibition at 0.175 µM (HCT-116 cell line),Ki (CDK2/Cyclin A),IC50 (HCT-116 cell line)
CCN(CC)CCCNCCCS(=O)(=O)N1CCC(Nc2nc(N)c(C(=O)c3c(F)cccc3F)s2)CC1 [Example V14],75%,18%,,
CC(C)NCCCS(=O)(=O)N1CCC(Nc2nc(N)c(C(=O)c3c(F)cccc3F)s2)CC1 [Example V93],84%,11%,,
Nc1nc(NC2CCN(S(=O)(=O)CCCN3CCSCC3)CC2)sc1C(=O)c1c(F)cccc1F [Example V104],86%,42%,,
Nc1nc(NC2CCN(S(=O)(=O)CCCN[C@@H]3CONC3=O)CC2)sc1C(=O)c1c(F)cccc1F [Example V21],86%,10%,,
CCCN(CCC#N)CCCS(=O)(=O)N1CCC(Nc2nc(N)c(C(=O)c3c(F)cccc3F)s2)CC1 [Example V105],84%,0%,,
COCCNCCCS(=O)(=O)N1CCC(Nc2nc(N)c(C(=O)c3c(F)cccc3F)s2)CC1 [Example V67],87%,21%,,
Nc1nc(NC2CCN(S(=O)(=O)CCCNCC3COCCO3)CC2)sc1C(=O)c1c(F)cccc1F (stereo not shown) [Example V163],83%,2%,,
"CC1CCN(CCCS(=O)(=O)N2CCC(Nc3nc(N)c(C(=O)c4c(F)cccc4F)s3)CC2)CC1 [Example K58, {4-Amino-2-[(1-{[3-(4-methylpiperidin-1-yl)propyl]sulfonyl}piperidin-4-yl)amino]-1,3-thiazol-5-yl}(2,6-difluorophenyl)methanone]",,,11 nM,150 nM
Nc1nc(NC2CCN(S(=O)(=O)CCCN(CCO)CCO)CC2)sc1C(=O)c1c(F)cccc1F [Example V78],80%,7%,,
"Nc1nc(NC2CCN(S(=O)(=O)CCCNCc3cccc(F)c3)CC2)sc1C(=O)c1c(F)cccc1F [Example V178, (4-Amino-2-{[1-({3-[(3-fluorobenzyl)amino]propyl}sulfonyl)-4-piperidinyl]amino}-1,3-thiazol-5-yl)(2,6-difluorophenyl)methanone.]",,,4.6 nM,80 nM
Cc1cnc(CNCCCS(=O)(=O)N2CCC(Nc3nc(N)c(C(=O)c4c(F)cccc4F)s3)CC2)cn1 [Example V43],81%,17%,,
COCC(C)NCCCS(=O)(=O)N1CCC(Nc2nc(N)c(C(=O)c3c(F)cccc3F)s2)CC1 (stereo not shown) [Example V58],80%,10%,,
CCN1CCN(CCCS(=O)(=O)N2CCC(Nc3nc(N)c(C(=O)c4c(F)cccc4F)s3)CC2)CC1 [Example V59],72%,7%,,
CC(C)[C@H](CO)NCCCS(=O)(=O)N1CCC(Nc2nc(N)c(C(=O)c3c(F)cccc3F)s2)CC1 [Example V70],89%,2%,,
CN(C)CCNCCCS(=O)(=O)N1CCC(Nc2nc(N)c(C(=O)c3c(F)cccc3F)s2)CC1 [Example V54],75%,0%,,
CC(O)CCNCCCS(=O)(=O)N1CCC(Nc2nc(N)c(C(=O)c3c(F)cccc3F)s2)CC1 (stereo not shown) [Example V81],78%,5%,,
Nc1nc(NC2CCN(S(=O)(=O)CCCNC3CCOC3=O)CC2)sc1C(=O)c1c(F)cccc1F (stereo not shown) [Example V18],22%,0%,,
CN(C)C1CCN(CCCS(=O)(=O)N2CCC(Nc3nc(N)c(C(=O)c4c(F)cccc4F)s3)CC2)CC1 [Example V22],67%,13%,,

SMILES,inhibition at 0.05 µM (CDK2/Cyclin A),inhibition at 0.175 µM (HCT-116 cell line),Ki (CDK2/Cyclin A),IC50 (HCT-116 cell line)
CSCCNCCCS(=O)(=O)N1CCC(Nc2nc(N)c(C(=O)c3c(F)cccc3F)s2)CC1 [Example V128],87%,25%,,
CN(C)CCCCNCCCS(=O)(=O)N1CCC(Nc2nc(N)c(C(=O)c3c(F)cccc3F)s2)CC1 [Example V154],82%,15%,,
Nc1nc(NC2CCN(S(=O)(=O)CCCNC3CCCNC3=O)CC2)sc1C(=O)c1c(F)cccc1F (stereo not shown) [Example V162],83%,9%,,
CCOCCNCCCS(=O)(=O)N1CCC(Nc2nc(N)c(C(=O)c3c(F)cccc3F)s2)CC1 [Example V98],81%,21%,,
Nc1nc(NC2CCN(S(=O)(=O)CCCN3CCC(O)CC3)CC2)sc1C(=O)c1c(F)cccc1F [Example V25],73%,16%,,
CC(C)OCCCNCCCS(=O)(=O)N1CCC(Nc2nc(N)c(C(=O)c3c(F)cccc3F)s2)CC1 [Example V96],84%,10%,,
Nc1nc(NC2CCN(S(=O)(=O)CCCN3CCCC(O)C3)CC2)sc1C(=O)c1c(F)cccc1F (stereo not shown) [Example V77],72%,7%,,
Nc1nc(NC2CCN(S(=O)(=O)CCCNCCCO)CC2)sc1C(=O)c1c(F)cccc1F [Example V4],75%,19%,,
"Nc1nc(NC2CCN(S(=O)(=O)CCCNCc3ccccc3F)CC2)sc1C(=O)c1c(F)cccc1F [Example V183, (4-Amino-2-{[1-({3-[(2-fluorobenzyl)amino]propyl}sulfonyl)-4-piperidinyl]amino}-1,3-thiazol-5-yl)(2,6-difluorophenyl)methanone.]",,,4 nM,90 nM
Nc1nc(NC2CCN(S(=O)(=O)CCCNCCC3=CCCCC3)CC2)sc1C(=O)c1c(F)cccc1F [Example V49],91%,38%,,
CC(=O)NCCNCCCS(=O)(=O)N1CCC(Nc2nc(N)c(C(=O)c3c(F)cccc3F)s2)CC1 [Example V19],59%,13%,,
Cc1ccc(CNCCCS(=O)(=O)N2CCC(Nc3nc(N)c(C(=O)c4c(F)cccc4F)s3)CC2)o1 [Example V123],76%,5%,,
Nc1nc(NC2CCN(S(=O)(=O)CCCN[C@H]3CC[C@@H](CO)CC3)CC2)sc1C(=O)c1c(F)cccc1F [Example V170],82%,14%,,
Nc1nc(NC2CCN(S(=O)(=O)CCCN3CCCC3)CC2)sc1C(=O)c1c(F)cccc1F [Example V64],17%,0%,,
CCCCCNCCCS(=O)(=O)N1CCC(Nc2nc(N)c(C(=O)c3c(F)cccc3F)s2)CC1 [Example V89],85%,42%,,
CC1CN(CCCS(=O)(=O)N2CCC(Nc3nc(N)c(C(=O)c4c(F)cccc4F)s3)CC2)CC(C)O1 (stereo not shown) [Example V31],83%,48%,,
COC(=O)CNCCCS(=O)(=O)N1CCC(Nc2nc(N)c(C(=O)c3c(F)cccc3F)s2)CC1 [Example V50],81%,0%,,
